According to US20130039956A1, “USE OF NITROCARBOXYLIC ACIDS FOR THE TREATMENT, DIAGNOSIS AND PROPHYLAXIS OF AGGRESSIVE HEALING PATTERNS” (priority 2010, published 2013):

Key:
[1] = tested on: Cardiomyocytes; test: TGF-β1-inducible formation of extracellular matrix in cardiomyocytes under shear stress; type: cell-based; details: 10-100 μmol, shear stress up to 100 dyn/cm^2; compared with native FA
Experimental: Characterizing features of the fibrous remodelling in the heart are accentuated expression and deposition of extracellular matrix proteins (ECM). This has been attributed to increased mechanical forces via autocrine release of transforming growth factor-beta (TGF-beta). […] An established cell culture model was used to investigate the effect of shear stress on cardiomyocytes. Cardiomyocytes were cultured and transferred to a matrigel substrate. Plates with confluenced cells were placed into a shear force injury device (SFID). The SFID design is based on a cone-and-plate construction which is a well-defined rheological model in which a homogenously distributed laminar flow over the surface of the cells is generated by a rotating cone. The conical surface is positioned above a stationary flat plate and the fluid medium between these two surfaces is set in motion by rotating the cone to create a uniform level of fluid shear stress throughout the entire surface of the cells cultured on the coverslips.
A peak shear stress of 100 dyn/cm^2 could be applied without significant cell detachment enabling a maximum injury severity of 46%. Cells were exposed to FCS 1% without or with nitro-fatty acid, and the corresponding native fatty acid in a dosage range between 10 μmol and 100 μmol, 10 seconds before shear force application. Shear force peaks up to 100 dyn/cm^2 with a duration of 30 msec each with a repetition frequency of 60/minute were applied for 5, 10, 30 and 60 minutes. Thereafter the cell plates were washed and placed in FCS 1% for 24 hrs. The supernatant of the shear force investigation as well as that of the following culture phase was analysed. It could be shown that TGF-beta and ECM proteins (collagen I, fibronectin, laminin, elastin) increased after treatment in the control groups.

[2] = tested on: Murine macrophage-like cells RAW 264.7 and murine L929 fibroblasts; test: Monocyte/fibroblast co-culture on coated surgical suture material; type: cell-based; details: dip-coated suture material, 24 and 48 hours; compared with native FA
Source text: In order to determine immunoreactions to foreign material and its consequence on fibrogenesis, co-cultures of fibroblasts and monocytes were used. Commercially available suture materials (propylene, polyamide, and silk) were dip-coated with corresponding native and nitrated fatty acids. Untreated suture material served as control. Treated and untreated suture materials were out in small pieces and placed in a 96-well plate.
Murine macrophage-like cells RAW 264.7 and murine L929 fibroblasts were cultured to a population density of 5×10(5) each. Cell suspensions were merged achieving a cellularity of approximately 2.5×10(5) cell/ml of each cell population which were added to the wells. The suture material samples were fully covered by the suspension. Wells were continuously and gently shaken throughout the incubation period.
Supernatants were collected for assays after 24 and 48 hours and analyzed for profibrotic cytokines IL-13, IL-4, and IL-6, TGF-β1, collagen I.

[3] = tested on: Human peripheral blood mononuclear cells (PBMCs); test: Adhesion of serum proteins and monocyte activation induced by coated silicone; type: cell-based; details: dip-coated silicone, PBMCs 3 days; compared with native FA
Experimental: In order to determine the effect of coating implant materials with nitro fatty acids to reduce adsorption of adhesion molecules and monocyte activation, sterile silicone sheets were out in small pieces and coated with respective nirocarboxylic acid and the corresponding native fatty acids by dip coating. Uncoated silicone pieces served as controls. For each fatty acid two sets of silicone pieces were bathed in freshly drawn human serum for 1 hour at 37° C., and another two sets were bathed in saline solutions. One set of both coated and uncoated pieces was analyzed immediately for adhesion proteins and the other set was placed in 96-well plates after rinsing the silicone pieces. Human peripheral blood mononuclear cells (PBMCs), isolated from three healthy subjects, were added to each well. Wells were incubated for 3 days under standard conditions. Culture supernatants were assayed for IL-1beta, IL-6, IL-8, and chemoattractant protein 1 (MCP-1) levels at the start and end of experiments.
Before analyzing the silicone pieces for protein adsorption, they were bathed in saline for 5 minutes. Thereafter, one side was rinsed with saline as performed for both sides in the set used for culturing. There was marked adsorption of fibrinogen and […] C5b-9 on the uncoated silicone. […] No protein was found on the surface of the nitro fatty acid-coated sample that was rinsed, thus, indicating the weak adherence of serum proteins.

[4] = tested on: female Sprague-Dawley rats; test: Fibrogenesis in an in-vivo model of soft implant implantation; parameters: species or system rat; details: subcutaneous implants, 120 days, compared with native FA
Experimental: Silicone bag-gel miniprostheses (POLYTECH Health & Aesthetics GmbH, Dieburg, Germany) having a diameter of 2 cm and a volume of approximately 2 ml were used. […] The experimentally used implant models had two small tags which allowed the implants to be suspended during the coating procedures.
Each implant was treated in the following manner: cleaning by sonication for 2 min each in the following sequence of solvents: acetone, toluene, acetone, ethanol, and water. Implants were exposed to Piranha solution for 60 min and rinsed with deionized water. They were then immersed in a 20% aqueous solution of ammonium fluoride for 45 min to obtain a hydrogen-passivated Si surface. The ammonium fluoride solution was sparged with nitrogen for 15 min to remove dissolved oxygen. Prepared implants were transferred to a glass chamber filled with an inert atmosphere where they were suspended so that no part of their surface came in contact with the container. The container was filled with a 1-hexadecene solution and heated at 150° C. at a pressure of 2 Torr for 120 min. Prepared implants were cleaned in the following sequence of solvents: acetone, ethanol, and water. Formation of self assembled monolayer was controlled by measuring surface hydrophobicity; the contact angle was about 105°. Dry implants suspended in the container were then bathed in an ethanolic solution of oleic acid or nitro-oleic acid at a temperature of 40° C. for 120 min. Thereafter, the solution was allowed to run out slowly through an outlet at the bottom of the container. The emptying container was filled with inert gas in which the samples were maintained for 24 hours. Then samples were bathed three times in an ethanolic solution, followed by a final rinsing with sterile water. After drying, the container with the prepared implant was sterilized using ethylene oxide and stored at 20° C.
For in vivo testing, 24 uncoated and 24 coated implants were investigated in 24 female Sprague-Dawley rats (190-230 g). In the anesthetized animals, bilateral dorsal pockets in the subcutaneum were created by blunt dissection through paired paravertebral incisions. Each animal received one coated implant and one control implant on opposite sides, alternating sides on successive animals. Animals were housed and fed according to institutional standards for 120 days. Animals were sacrificed with chloroform. The implants and the adhering tissue were extracted by en bloc resection. The implants were cannulated and the liquid silicone gel was replaced by paraffin. Thereafter, the complete tissue block was prepared by standard means of histology, and stained with H&E or Masson's trichrome.
Note: key: 0: not superior to native FA (control); +: Superior to native FA; ++: superior to both; +++: outstanding effect.

Molecule	Relative efficacy to suppress TGF-beta and ECM proteins in cardiomyocytes [1]	Relative effect on profibrotic cytokines and collagen I on suture material [2]	Relative effect on serum protein adhesion and monocyte activation [3]	Relative effect of surface coating on fibrogenesis around silicone implants [4]
5-nitro-eicosatrienoic acid [compound 4]	+	+	+	
9,10-nitro-cis-oleic acid [compound 10]	++	+++	++	++
9,10-nitro-trans-oleic acid [compound 15]	+	+	+	+
CCCCCCCC/C=C(/CCCCCCCC(=O)O)[N+](=O)[O-] [compound 1, 9-nitro cis-oleic acid]	++	++	+++	++
CCCCC/C=C\C/C(=C\CCCCCCCC(=O)O)[N+](=O)[O-] [compound 2, 10-nitro-cis-linoleic acid]	++	+++	++	++
CCCCCCCC/C(=C/CCCCCCCC(=O)O)[N+](=O)[O-] [compound 3, 10-nitro-cis-oleic acid]	++	++	++	++
CCCCC/C=C(/C/C=C\C/C=C\C/C=C\C/C=C\CCC(=O)O)[N+](=O)[O-] [compound 5, 16-nitro-all-cis-4,7,10,13,16-docosapentaenoic acid]	+	+	+	
CC/C=C\C/C=C\C/C=C(/CCCCCCCC(=O)O)[N+](=O)[O-] [compound 6, 9-nitro-all-cis-9-12,15-octadecatrienoic acid]	+++	+	+	++
CC/C=C\C/C=C\C/C(=C/C/C=C\C/C=C\CCCCCC(=O)O)[N+](=O)[O-] [compound 7, 14-nitro-all-cis-7,10,13,16,19-docosapentaenoic acid]	+	+	0	
CCCCCCCC/C=C(/CCCCCCCCCCCCCC(=O)O)[N+](=O)[O-] [compound 8, 15-nitro-cis-15-tetracosenoic acid]	+	+	+	+
CCCCCCCC/C=C(\CCCCCCCC(=O)O)[N+](=O)[O-] [compound 9, 9-nitro-trans-oleic acid]	+	+	+	+
CCCCC=C(C=CC=CCCCCCCCC(=O)O)[N+](=O)[O-] [compound 11, 13-nitro-octadeca-9,11,13-trienoic acid]	+	0	+	+
CCCCCCCC/C(=C\CCCCCCCC(=O)O)[N+](=O)[O-] [compound 12, 10-nitro-trans-oleic acid]		+	0	
CCCCCC/C=C(/CCCCCCCC(=O)O)[N+](=O)[O-] [compound 13]		+	+	+
CCCCCC=CCC=C(CC=CCC=CCCCC(=O)O)[N+](=O)[O-] [compound 14, 11-nitro-5,8,11,14-eicosatrienoic acid]	+	+	+	+
CCCCCC/C=C(\CCCCCCCC(=O)O)[N+](=O)[O-] [compound 16, 9-nitro-9-trans-hexadecenoic acid]		+	0	0
CCCCCCCC/C=C(/CCCCCCCCCCCC(=O)O)[N+](=O)[O-] [compound 17, 13-nitro-cis-13-docosenoic acid]		+	+	
CCCCC/C=C(/C/C=C\C/C=C(/C/C=C\CCCC(=O)O)[N+](=O)[O-])[N+](=O)[O-] [compound 18, 8,14-nitro-cis-5,8,11,14-eicosatetraenoic acid]		0	++	
CCC=CCC=C(CC=CCC=CCC=CCC=C(CCC(=O)O)[N+](=O)[O-])[N+](=O)[O-] [compound 19, 4,16-nitro-docosahexaenoic acid]		+	+	
